Results as given in patent US20150329558A1, “FUSED HETEROCYCLIC COMPOUNDS AS ION CHANNEL MODULATORS” (Gilead Sciences, Inc., priority 2011, published 2015).
“And” between values parts separate entries of the source, which are not always exact repeats. Equal values may be shown once. Read-outs that look alike come from different tables or passages of the source.

Assays:
[1] = Microsomal stability assay, dog; type: in vitro ADME; conditions: metabolic stability, dog liver microsomes 0.5 mg/mL, substrate 3 uM
Method in brief: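 Liver microsomes at 0.5 mg/mL protein in 100 mM KPO4 buffer, incubated with 3 uM compound and NADPH-regenerating system, run in duplicate. Samples taken at 2, 12, 25, 45 and 65 min and quenched in MeOH/ACN/water before analysis.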

hERG potassium channel = hERG potassium channel (Homo sapiens, UniProt Q12809); assay: hERG screening assay (PatchXpress, CHO cells); type: cell-based; conditions: for HERG*: % inhibition at 1 μM
Experimental: Compounds were also tested for their effect to block the hERG K^+ channel.
Compounds were screened to test their activity in blocking the hERG potassium channel at AVIVA Biosciences (San Deigo, Calif., USA). The hERG channel is heterologously expressed in a CHO (Chinese Hamster Ovary) cell line. Cells were maintained with standard tissue culture procedures and stable channel expression was maintained with 500 μg/mL G418 in the culture medium. Cells were harvested for testing on the PatchXpress 7000A automated patch clamp with Accumax (Innovative Cell Technologies, San Diego, Calif.) to isolate single cells.
The following solutions were used for electrophysiological recordings. The external solution contained: 2 mM CaCl2; 2 mM MgCl2; 4 mM KCl; 150 mM NaCl; 10 mM Glucose; 10 mM HEPES (pH 7.4 with 1M NaOH; osmolarity, ˜310 mOsm). The internal solution contained: 140 mM KCl, 10 mM MgCl2, 6 mM EGTA, 5 mM HEPES, 5 mM ATP (pH adjusted to 7.25 with KOH; osmolarity, ˜295 mOsm).
hERG channels were activated when the voltage was first stepped to −50 mV for 300 ms from the −80 mV holding potential and then stepped to +20 mV for 5 seconds. At +20 mV the channels open and then largely inactivate, so the currents are relatively small. Upon returning to −50 mV from +20 mV, hERG currents transiently become much larger as inactivation is rapidly removed and then the channel closes. The first step to −50 mV for 300 ms was used as a baseline for measuring the peak amplitude during the step to −50 mV after channel activation. The peak tail current at −50 mV was measured both under control conditions and after addition of compound, each cell serving as its own control.
All compounds were prepared as 10 mM DMSO stocks in glass vials. Stock solutions were mixed by vigorous vortexing and sonication for about 2 minutes at room temperature. For testing, compounds were diluted in glass vials using an intermediate dilution step in pure DMSO and then further diluted to working concentrations in external solution. Dilutions were prepared no longer than 20 minutes before use.
For the electrophysiological recordings, after achieving the whole-cell configuration, cells were monitored for 90 seconds to assess stability and washed with external solution for 66 seconds. The voltage protocol described above was then applied to the cells every 12 seconds and throughout the whole procedure. Only cells with stable recording parameters and meeting specified health criteria were allowed to enter the compound addition procedure.
External solution containing 0.1% DMSO (vehicle) was applied to the cells first to establish the control peak current amplitude. After allowing the current to stabilize for 3 to 5 minutes, 1 μM and then 10 μM test compounds were applied. Each compound concentration was added 4 times and cells were kept in test solution until the effect of the compound reached steady state or for a maximum of 12 minutes. After addition of test compound, a positive control (1 μM Cisapride) was added and must block >95% of the current for the experiment to be considered valid. Washout in the external solution compartment was performed until the recovery of the current reached steady state.

[2] = biological target: wild-type human cardiac sodium channel, hNav1.5 (late INa) (Homo sapiens, UniProt Q14524); assay: Late INa screening assay (QPatch whole cell patch clamp); type: cell-based
Method in brief: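 Compounds tested at 1 μM final in extracellular solution against tefluthrin (10 μM)-enhanced late current. Automated patch clamp (23-25° C) on HEK293 expressing alpha subunit alone: −120 mV holding, 250 ms depolarization to −20 mV every 10 s. Read-out is percent inhibition of mean current over 225–250 ms.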

[3] = % inhibition at 1 μM, read-out: NAv1.5*-LATE-
[4] = percent block of late INa, compound at 1 μM, 10 μM Tefluthrin, HEK293 hNav1.5, read-out: Late INa 1 μM

hERG potassium channel, sequence (Q12809 whole entry): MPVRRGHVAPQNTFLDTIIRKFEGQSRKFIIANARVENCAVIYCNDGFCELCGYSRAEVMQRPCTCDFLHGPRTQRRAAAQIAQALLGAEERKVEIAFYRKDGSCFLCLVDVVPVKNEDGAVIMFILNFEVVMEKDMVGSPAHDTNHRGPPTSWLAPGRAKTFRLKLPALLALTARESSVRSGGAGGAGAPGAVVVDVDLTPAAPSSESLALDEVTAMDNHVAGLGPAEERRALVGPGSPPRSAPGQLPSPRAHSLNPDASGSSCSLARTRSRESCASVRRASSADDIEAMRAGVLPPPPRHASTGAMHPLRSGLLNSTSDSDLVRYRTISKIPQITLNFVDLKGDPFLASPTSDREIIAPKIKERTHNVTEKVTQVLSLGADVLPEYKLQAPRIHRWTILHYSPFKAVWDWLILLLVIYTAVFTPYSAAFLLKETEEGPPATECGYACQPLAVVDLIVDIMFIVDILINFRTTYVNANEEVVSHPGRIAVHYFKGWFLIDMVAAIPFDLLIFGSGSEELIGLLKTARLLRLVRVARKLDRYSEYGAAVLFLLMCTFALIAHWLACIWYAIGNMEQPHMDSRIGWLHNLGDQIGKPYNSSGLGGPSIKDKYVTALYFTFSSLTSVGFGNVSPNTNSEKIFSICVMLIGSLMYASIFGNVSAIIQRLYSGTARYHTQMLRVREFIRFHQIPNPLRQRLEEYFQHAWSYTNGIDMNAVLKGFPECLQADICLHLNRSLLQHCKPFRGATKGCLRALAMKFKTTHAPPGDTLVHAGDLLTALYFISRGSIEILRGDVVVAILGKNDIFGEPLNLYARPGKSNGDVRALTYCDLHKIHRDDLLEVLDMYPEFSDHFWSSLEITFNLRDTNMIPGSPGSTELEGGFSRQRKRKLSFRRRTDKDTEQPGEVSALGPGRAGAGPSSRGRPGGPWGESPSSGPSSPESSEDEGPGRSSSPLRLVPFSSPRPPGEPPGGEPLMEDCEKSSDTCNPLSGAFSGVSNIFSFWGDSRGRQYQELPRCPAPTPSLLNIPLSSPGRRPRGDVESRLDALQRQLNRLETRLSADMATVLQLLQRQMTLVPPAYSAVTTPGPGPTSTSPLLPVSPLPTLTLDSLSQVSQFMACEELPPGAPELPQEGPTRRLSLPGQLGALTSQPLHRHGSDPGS
wild-type human cardiac sodium channel, hNav1.5 (late INa), sequence (Q14524 whole entry): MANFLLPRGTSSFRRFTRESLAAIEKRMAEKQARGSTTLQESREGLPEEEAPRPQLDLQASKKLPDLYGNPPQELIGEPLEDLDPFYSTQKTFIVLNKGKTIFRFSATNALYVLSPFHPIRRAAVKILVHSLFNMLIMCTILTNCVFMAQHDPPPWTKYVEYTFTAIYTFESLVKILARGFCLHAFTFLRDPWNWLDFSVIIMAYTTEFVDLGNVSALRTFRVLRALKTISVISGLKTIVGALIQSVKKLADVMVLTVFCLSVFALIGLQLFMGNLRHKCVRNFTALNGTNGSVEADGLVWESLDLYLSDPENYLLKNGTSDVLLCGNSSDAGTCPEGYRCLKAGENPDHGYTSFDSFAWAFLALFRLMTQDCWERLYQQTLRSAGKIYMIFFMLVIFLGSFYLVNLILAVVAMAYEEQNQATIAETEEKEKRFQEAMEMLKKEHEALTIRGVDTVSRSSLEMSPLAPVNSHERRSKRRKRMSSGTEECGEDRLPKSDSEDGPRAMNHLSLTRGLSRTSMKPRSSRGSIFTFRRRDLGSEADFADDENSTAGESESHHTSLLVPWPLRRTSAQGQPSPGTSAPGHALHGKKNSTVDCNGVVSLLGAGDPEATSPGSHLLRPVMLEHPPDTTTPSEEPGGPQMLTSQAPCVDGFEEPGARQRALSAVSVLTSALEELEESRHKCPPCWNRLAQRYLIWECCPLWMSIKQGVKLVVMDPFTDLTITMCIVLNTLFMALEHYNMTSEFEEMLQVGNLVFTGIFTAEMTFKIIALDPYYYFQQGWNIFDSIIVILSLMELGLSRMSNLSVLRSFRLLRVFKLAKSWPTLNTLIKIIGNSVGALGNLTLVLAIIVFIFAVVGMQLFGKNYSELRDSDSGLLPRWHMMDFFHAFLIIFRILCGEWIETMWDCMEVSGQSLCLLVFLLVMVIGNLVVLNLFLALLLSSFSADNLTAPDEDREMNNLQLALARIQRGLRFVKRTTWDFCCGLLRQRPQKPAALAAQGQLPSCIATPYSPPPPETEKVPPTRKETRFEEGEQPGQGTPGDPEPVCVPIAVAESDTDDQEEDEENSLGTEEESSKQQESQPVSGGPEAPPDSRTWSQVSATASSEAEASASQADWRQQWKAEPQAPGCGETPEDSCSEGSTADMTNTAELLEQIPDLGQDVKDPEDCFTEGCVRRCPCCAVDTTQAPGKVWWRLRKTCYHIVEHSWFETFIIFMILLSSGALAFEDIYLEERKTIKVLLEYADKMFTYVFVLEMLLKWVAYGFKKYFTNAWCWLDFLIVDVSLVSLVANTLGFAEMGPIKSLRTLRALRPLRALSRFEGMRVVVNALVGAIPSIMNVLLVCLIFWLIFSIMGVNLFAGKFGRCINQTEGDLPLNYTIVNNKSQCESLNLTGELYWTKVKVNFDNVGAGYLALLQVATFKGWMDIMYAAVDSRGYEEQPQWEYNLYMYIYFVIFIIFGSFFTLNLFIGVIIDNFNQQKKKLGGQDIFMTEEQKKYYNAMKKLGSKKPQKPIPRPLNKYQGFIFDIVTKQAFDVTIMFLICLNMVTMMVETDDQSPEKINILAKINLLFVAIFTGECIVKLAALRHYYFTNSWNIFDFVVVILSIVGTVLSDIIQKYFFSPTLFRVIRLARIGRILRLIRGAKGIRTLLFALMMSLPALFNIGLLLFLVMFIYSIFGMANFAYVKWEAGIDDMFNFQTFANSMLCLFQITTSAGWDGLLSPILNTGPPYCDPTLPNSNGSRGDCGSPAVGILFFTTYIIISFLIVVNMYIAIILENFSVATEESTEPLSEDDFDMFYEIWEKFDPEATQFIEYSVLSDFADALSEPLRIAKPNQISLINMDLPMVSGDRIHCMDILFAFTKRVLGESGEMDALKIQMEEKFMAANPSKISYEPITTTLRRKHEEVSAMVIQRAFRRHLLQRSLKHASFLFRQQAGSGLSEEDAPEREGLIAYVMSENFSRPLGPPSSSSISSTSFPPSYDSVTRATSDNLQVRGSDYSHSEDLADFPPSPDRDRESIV

| MS Dog THalf [1] | SMILES | HERG* (hERG potassium channel) | inhibition at 1 µM [2, 3] | inhibition at 1 µM [2, 4] | inhibition at 10 µM (hERG potassium channel; human, CHO cells that heterologously express the hERG channel, pH 7.4, at 10 μM) |
| --- | --- | --- | --- | --- | --- |
| 124 min | N#Cc1ccnc(OCCn2nnc3ccc(-c4ccc(OC(F)(F)F)cc4)cc3c2=O)n1 [II-36, 2-(2-(4-oxo-6-(4-(trifluoromethoxy)phenyl)benzo[d][1,2,3]triazin-3(4H)-yl)ethoxy)pyrimidine-4-carbonitrile] | 21% | 43% | 43% |  |
| 169 min | Cc1ncc(Cn2nnc3ccc(-c4ccc(OC(F)(F)F)cc4)cc3c2=O)o1 [II-95, 3-((2-methyloxazol-5-yl)methyl)-6-(4-(trifluoromethoxy)phenyl)benzo[d][1,2,3]triazin-4(3H)-one] | <10% | 36% | 36% |  |
| 356 min | Cc1nc(Cn2cnc3ccc(-c4ccc(OC(F)(F)F)cc4)cc3c2=O)no1 [IV-9, 3-((5-methyl-1,2,4-oxadiazol-3-yl)methyl)-6-(4-(trifluoromethoxy)phenyl)quinazolin-4(3H)-one] | <10% | 42% | 42% |  |
| 36 min | O=c1c2cc(-c3ccc(OC(F)(F)F)cc3)ccc2nnn1CCOc1ncccn1 [II-32, 3-(2-(pyrimidin-2-yloxy)ethyl)-6-(4-(trifluoromethoxy)phenyl)benzo[d][1,2,3]triazin-4(3H)-one] | 45% | 64% | 64% |  |
| 158 min | Cc1noc(Cn2cnc3ccc(-c4ccc(OC(F)(F)F)cc4)cc3c2=O)n1 [IV-6, 3-((3-methyl-1,2,4-oxadiazol-5-yl)methyl)-6-(4-(trifluoromethoxy)phenyl)quinazolin-4(3H)-one] | <10% | 49% | 49% |  |
| > 395 min | O=C(c1cccnn1)N1CCc2ccc(-c3ccc(C(F)(F)F)cc3)cc2C1 [IX-17, Pyridazin-3-yl(7-(4-(trifluoromethyl)phenyl)-3,4-dihydroisoquinolin-2 (1H)-yl) methanone] | 76% | 39% | 39% |  |
| 51 min | O=c1c2cc(-c3ccc(OC(F)(F)F)cc3)ccc2cnn1CCOc1ncccn1 [III-28, 2-(2-(pyrimidin-2-yloxy)ethyl)-7-(4-(trifluoromethoxy)phenyl)phthalazin-1 (2H)-one] | 51% | 75% | 75% |  |
| 164 min | O=C1c2cc(-c3ccc(OC(F)(F)F)cc3)ccc2OCN1Cc1ccccn1 [VIII-3, 3-(pyridin-2-ylmethyl)-6-(4-(trifluoromethoxy)phenyl)-2H-benzo[e][1,3]oxazin-4(3H)-one] | <10% | 58% | 58% |  |
| 270 min | O=c1c2cc(-c3ccc(OC(F)(F)F)cc3)ccc2nnn1Cc1nnc(C2CC2)o1 [II-67, 3-((5-cyclopropyl-1,3,4-oxadiazol-2-yl)methyl)-6-(4-(trifluoromethoxy)phenyl)benzo[d][1,2,3]triazin-4(3H)-one] | 41% | 47% | 47% |  |
| 320 min | O=C1c2cc(-c3ccc(C(F)(F)F)cc3)ccc2CCN1Cc1ncccn1 [IX-3, 2-(pyrimidin-2-ylmethyl)-7-(4-(trifluoromethyl)phenyl)-3,4-dihydroisoquinolin-1(2H)-one] | 14% | 29% | 29% |  |
| 210 min | O=C1c2cc(-c3ccc(C(F)(F)F)cc3)ccc2OCN1Cc1ccccn1 [VIII-1, 3-(pyridin-2-ylmethyl)-6-(4-(trifluoromethyl)phenyl)-2H-benzo[e][1,3]oxazin-4(3H)-one] |  | 52% | 52% |  |
| 129 min | COc1cc(OC)nc(Cn2ncc3ccc(-c4ccc(OC(F)(F)F)cc4)cc3c2=O)n1 [III-19, 2-((4,6-dimethoxypyrimidin-2-yl)methyl)-7-(4-(trifluoromethoxy)phenyl)phthalazin-1 (2H)-one] | 23% | 56% | 56% |  |
| 50 min | O=c1c2cc(-c3ccc(OC(F)(F)F)cc3)ccc2nnn1CCc1ccncn1 [II-17, 3-(2-(pyrimidin-4-yl)ethyl)-6-(4-(trifluoromethoxy)phenyl)benzo[d][1,2,3]triazin-4(3H)-one] | 42% | 61% | 61% |  |
| 74 min | O=c1c2cc(-c3ccc(OC(F)(F)F)cc3)ccc2nnn1CCc1ncccn1 [II-18, 3-(2-(pyrimidin-2-yl)ethyl)-6-(4-(trifluoromethoxy)phenyl)benzo[d][1,2,3]triazin-4(3H)-one] | 30% | 66% | 66% |  |
| 66 min | O=c1c2cc(-c3ccc(OC(F)(F)F)cc3)ccc2cnn1Cc1ncccn1 [III-5, 2-(pyrimidin-2-ylmethyl)-7-(4-(trifluoromethoxy)phenyl)phthalazin-1(2H)-one] | 13% | 44% | 44% |  |
| 27 min | O=c1c2cc(-c3ccc(OC(F)(F)F)cc3)ccc2cnn1CCn1cccn1 [III-9, 2-(2-(1H-pyrazol-1-yl)ethyl)-7-(4-(trifluoromethoxy)phenyl)phthalazin-1(2H)-one] | 37% | 57% | 57% |  |
| > 395 min | O=C(c1ncccn1)N1CCc2ccc(-c3ccc(C(F)(F)F)cc3)cc2C1 [IX-7, pyrimidin-2-yl(7-(4-(trifluoromethyl)phenyl)-3,4-dihydroisoquinolin-2(1H)-yl)methanone] | <10% | 46% | 46% |  |
| 68 min | O=c1c2cc(-c3ccc(OC(F)(F)F)cc3)ccc2nnn1C1CCNCC1 [II-38, 3-(piperidin-4-yl)-6-(4-(trifluoromethoxy)phenyl)benzo[d][1,2,3]triazin-4(3H)-one] | 58% | 33% | 33% |  |
| 256 min | Cn1cnc(C(=O)N2CCc3ccc(-c4ccc(C(F)(F)F)cc4)cc3C2)c1 [IX-39, (1-methyl-1H-imidazol-4-yl)(7-(4-(trifluoromethyl)phenyl)-3,4-dihydroisoquinolin-2(1H)-yl)methanone] | 35% | 30% | 30% |  |
| 303 min | Cc1noc(Cn2nnc3ccc(-c4ccc(OC(F)(F)F)cc4)cc3c2=O)n1 [II-3, 3-((3-methyl-1,2,4-oxadiazol-5-yl)methyl)-6-(4-(trifluoromethoxy)phenyl)benzo[d][1,2,3]triazin-4(3H)-one] | 15.5% and 16% | 53% | 53% | 24.5% |
|  | O=C1c2cc(-c3ccc(OC(F)(F)F)cc3)ccc2OCN1Cc1ncccn1 [VIII-20, 3-(pyrimidin-2-ylmethyl)-6-(4-(trifluoromethoxy)phenyl)-2H-benzo[e][1,3]oxazin-4(3H)-one] | <10% | 62% | 62% |  |
